Test results: patent publication US20240092784A1, “CONDENSED HETEROCYCLIC COMPOUND” (NISSAN CHEMICAL CORPORATION, priority 2020, published 2024)
Structures can show the parent of a compound that is named as a salt.

These molecules were tested against human SPR (Homo sapiens (Human), UniProt P35270) (assay: Evaluation Example 2: Measurement of human SPR inhibitory activity (seven concentrations, sepiapterin absorbance at 420 nm)). Conditions: Evaluation Example 2, seven concentrations 0.14 nM to 100 nM, 240 minutes at room temperature, read-out: IC50.
human SPR, sequence (P35270 whole entry): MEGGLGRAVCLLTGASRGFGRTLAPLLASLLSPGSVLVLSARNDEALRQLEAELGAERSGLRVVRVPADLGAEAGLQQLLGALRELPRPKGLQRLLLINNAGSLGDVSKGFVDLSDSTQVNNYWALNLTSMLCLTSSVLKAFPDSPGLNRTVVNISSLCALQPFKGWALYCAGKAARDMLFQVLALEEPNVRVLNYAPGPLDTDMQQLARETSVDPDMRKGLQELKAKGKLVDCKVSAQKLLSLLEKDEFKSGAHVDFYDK
Assay type: biochemical
Procedure, shortened: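 His-tagged full-length human SPR (1-261) was expressed in E. coli and the tag removed. Enzyme at 150 ng/mL in 100 mM Tris-HCl pH 7.5/0.01% BSA was mixed with compound (0.14–100 nM, seven points), 120 μM sepiapterin and 160 μM NADPH, both as added-solution concentrations. After 240 min at room temperature, remaining sepiapterin was read at 420 nm to give percent inhibition.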

Row | SMILES | IC50 [nM]
1 | CC(C)Cn1c(=O)c(C(=O)NC2CC2)c(O)n2ncc(C(=O)NCc3ccc(F)cc3F)c12 [Synthesis Example 234, N6-Cyclopropyl-N3-(2,4-difluorobenzyl)-7-hydroxy-4-isobutyl-5-oxo-4,5-dihydropyrazolo[1,5-a]pyrimidine-3,6-dicarboxamide] | 1.41
2 | CC1(Cn2c(=O)c(C(=O)NC3CC3)c(O)n3ncc(/C=C/C(=O)N4CCOCC4)c23)CCOCC1 [Synthesis Example 386, (E)-N-Cyclopropyl-7-hydroxy-4-((4-methyltetrahydro-2H-pyran-4-yl)methyl)-3-(3-morpholino-3-oxoprop-1-en-1-yl)-5-oxo-4,5-dihydropyrazolo[1,5-a]pyrimidine-6-carboxamide] | 0.6
3 | Cc1nn2c(O)c(C(=O)NC3CC3)c(=O)n(CC(C)C)c2c1/C=C/C(=O)N(C)Cc1ccccn1 [Synthesis Example 638, (E)-N-Cyclopropyl-7-hydroxy-4-isobutyl-2-methyl-3-(3-(methyl(pyridin-2-ylmethyl)amino)-3-oxoprop-1-en-1-yl)-5-oxo-4,5-dihydropyrazolo[1,5-a]pyrimidine-6-carboxamide] | 1.05
4 | CC(C)(C)Cn1c(=O)c(C(=O)NC2CC2)c(O)n2nc(-c3[nH]ncc3C(=O)N3CCC(F)(F)CC3)cc12 [Synthesis Example 313, N-Cyclopropyl-2-(4-(4,4-difluoropiperidine-1-carbonyl)-1H-pyrazol-5-yl)-7-hydroxy-4-neopentyl-5-oxo-4,5-dihydropyrazolo[1,5-a]pyrimidine-6-carboxamide hydrochloride] | 1.15
5 | CC(C)Cn1c(=O)c(C(=O)NC2CC2)c(O)n2nc(N)c(/C=C/C(=O)N3C4CCCC3COC4)c12 [Synthesis Example 423, (E)-3-(3-(3-Oxa-9-azabicyclo[3.3.1]nonan-9-yl)-3-oxoprop-1-en-1-yl)-2-amino-N-cyclopropyl-7-hydroxy-4-isobutyl-5-oxo-4,5-dihydropyrazolo[1,5-a]pyrimidine-6-carboxamide hydrochloride] | 0.71
6 | CC(C)Cn1c(=O)c(C(=O)NC2CC2)c(O)n2ncc(/C=C/C(=O)N3CC[C@H](C#N)C3)c12 [compound 482, (S,E)-3-(3-(3-Cyanopyrrolidin-1-yl)-3-oxoprop-1-en-1-yl)-N-cyclopropyl-7-hydroxy-4-isobutyl-5-oxo-4,5-dihydropyrazolo[1,5-a]pyrimidine-6-carboxamide] | 0.71
7 | Cc1nn2c(O)c(C(=O)NC3CC3)c(=O)n(CC(C)C)c2c1/C=C/C(=O)N1CC2CCC(C1)O2 [compound 569, (E)-3-(3-(8-Oxa-3-azabicyclo[3.2.1]octan-3-yl)-3-oxoprop-1-en-1-yl)-N-cyclopropyl-7-hydroxy-4-isobutyl-2-methyl-5-oxo-4,5-dihydropyrazolo[1,5-a]pyrimidine-6-carboxamide] | 0.67
8 | CC(C)Cn1c(=O)c(C(=O)NC2CC2)c(O)n2ncc(/C=C/C(=O)N3CCOC[C@H]3CO)c12 [compound 526, (R,E)-N-Cyclopropyl-7-hydroxy-3-(3-(3-(hydroxymethyl)morpholino)-3-oxoprop-1-en-1-yl)-4-isobutyl-5-oxo-4,5-dihydropyrazolo[1,5-a]pyrimidine-6-carboxamide] | 0.67
9 | CC(C)(C)Cn1c(=O)c(C(=O)NC2CC2)c(O)n2nc(Nc3cnc(C(F)F)cn3)cc12 [Synthesis Example 337, N-Cyclopropyl-2-((5-(difluoromethyl)pyrazin-2-yl)amino)-7-hydroxy-4-neopentyl-5-oxo-4,5-dihydropyrazolo[1,5-a]pyrimidine-6-carboxamide] | 1.48
10 | CC(C)(C)Cn1c(=O)c(C(=O)NC2CC2)c(O)n2nc(-c3cn[nH]c3)cc12 [Synthesis Example 286, N-Cyclopropyl-7-hydroxy-4-neopentyl-5-oxo-2-(1H-pyrazol-4-yl)-4,5-dihydropyrazolo[1,5-a]pyrimidine-6-carboxamide] | 1.54
11 | CNc1nn2c(O)c(C(=O)NC3CC3)c(=O)n(CC(C)C)c2c1/C=C/C(=O)N1CC2CCC(C1)O2 [Synthesis Example 431, (E)-3-(3-(8-Oxa-3-azabicyclo[3.2.1]octan-3-yl)-3-oxoprop-1-en-1-yl)-N-cyclopropyl-7-hydroxy-4-isobutyl-2-(methylamino)-5-oxo-4,5-dihydropyrazolo[1,5-a]pyrimidine-6-carboxamide] | 0.81
12 | COC[C@H]1COCCN1C(=O)/C=C/c1cnn2c(O)c(C(=O)NC3CC3)c(=O)n(CC3(F)CC3)c12 [Synthesis Example 382, (S,E)-N-cyclopropyl-4-((1-fluorocyclopropyl)methyl)-7-hydroxy-3-(3-(3-(methoxymethyl)morpholino)-3-oxoprop-1-en-1-yl)-5-oxo-4,5-dihydropyrazolo[1,5-a]pyrimidine-6-carboxamide] | 0.87
13 | CC(C)Cn1c(=O)c(C(=O)NC2CC2)c(O)n2ncc(/C=C/C(=O)N3CC[C@@H](C#N)C3)c12 [compound 483, (R,E)-3-(3-(3-Cyanopyrrolidin-1-yl)-3-oxoprop-1-en-1-yl)-N-cyclopropyl-7-hydroxy-4-isobutyl-5-oxo-4,5-dihydropyrazolo[1,5-a]pyrimidine-6-carboxamide] | 0.69
14 | CC(C)Cn1c(=O)c(C(=O)NC2CC2)c(O)n2ncc(C(=O)NCc3ccccn3)c12 [Synthesis Example 215, N6-Cyclopropyl-7-hydroxy-4-isobutyl-5-oxo-N3-(pyridin-2-ylmethyl)-4,5-dihydropyrazolo[1,5-a]pyrimidine-3,6-dicarboxamide] | 1.04
15 | C/C(=C\c1cnn2c(O)c(C(=O)NC3CC3)c(=O)n(CC(C)C)c12)C(=O)N(C)CC#N [Synthesis Example 258, (E)-3-(3-((Cyanomethyl)(methyl)amino)-2-methyl-3-oxoprop-1-en-1-yl)-N-cyclopropyl-7-hydroxy-4-isobutyl-5-oxo-4,5-dihydropyrazolo[1,5-a]pyrimidine-6-carboxamide] | 0.74
16 | CC(C)(C)Cn1c(=O)c(C(=O)NC2CC2)c(O)n2nc(N)c(/C=C/C3CCOC3)c12 (stereo not shown) [Synthesis Example 444, (E)-2-Amino-N-cyclopropyl-7-hydroxy-4-neopentyl-5-oxo-3-(2-(tetrahydrofuran-3-yl)vinyl)-4,5-dihydropyrazolo[1,5-a]pyrimidine-6-carboxamide hydrochloride] | 0.98
17 | CC(C)Cn1c(=O)c(C(=O)NC2CC2)c(O)n2ncc(/C=C/C(=O)N3CCNCC3)c12 [compound 508, (E)-N-Cyclopropyl-7-hydroxy-4-isobutyl-5-oxo-3-(3-oxo-3-(piperazin-1-yl)prop-1-en-1-yl)-4,5-dihydropyrazolo[1,5-a]pyrimidine-6-carboxamide hydrochloride] | 0.77
18 | C/C(=C\c1cnn2c(O)c(C(=O)NC3CC3)c(=O)n(CC(C)C)c12)C(=O)N1CCC(F)(F)C1 [Synthesis Example 256, (E)-N-Cyclopropyl-3-(3-(3,3-difluoropyrrolidin-1-yl)-2-methyl-3-oxoprop-1-en-1-yl)-7-hydroxy-4-isobutyl-5-oxo-4,5-dihydropyrazolo[1,5-a]pyrimidine-6-carboxamide] | 0.97
19 | CC(C)Cn1c(=O)c(C(=O)NC2CC2)c(O)n2ncc(/C=C/C(=O)N3CCC(C(F)(F)F)CC3)c12 [compound 480, (E)-N-Cyclopropyl-7-hydroxy-4-isobutyl-5-oxo-3-(3-oxo-3-(4-(trifluoromethyl)piperidine-1-yl)prop-1-en-1-yl)-4,5-dihydropyrazolo[1,5-a]pyrimidine-6-carboxamide] | 1.12
20 | CC(C)Cn1c(=O)c(C(=O)NC2CC2)c(O)n2ncc(/C=C/C(=O)N3CCCC3C3CC3)c12 (racemic) [compound 593, (E)-N-Cyclopropyl-3-(3-(2-cyclopropylpyrrolidin-1-yl)-3-oxoprop-1-en-1-yl)-7-hydroxy-4-isobutyl-5-oxo-4,5-dihydropyrazolo[1,5-a]pyrimidine-6-carboxamide (racemate)] | 1.48
21 | Nc1ncccc1-c1cc2n(CC3CCOCC3)c(=O)c(C(=O)NC3CC3)c(O)n2n1 [Synthesis Example 290, 2-(2-Aminopyridin-3-yl)-N-cyclopropyl-7-hydroxy-5-oxo-4-((tetrahydro-2H-pyran-4-yl)methyl)-4,5-dihydropyrazolo[1,5-a]pyrimidine-6-carboxamide] | 0.93
22 | Cc1nn2c(O)c(C(=O)NC3CC3)c(=O)n(CC(C)C)c2c1/C=C/C(=O)N1CCC[C@@H]1C(C)C [Synthesis Example 629, (R,E)-N-Cyclopropyl-7-hydroxy-4-isobutyl-3-(3-(2-isopropylpyrrolidin-1-yl)-3-oxoprop-1-en-1-yl)-2-methyl-5-oxo-4,5-dihydropyrazolo[1,5-a]pyrimidine-6-carboxamide] | 1.14

Same assay, conditions: sepiapterin absorbance, Table 41, read-out: concentration at 50% inhibition of human SPR (IC50)

Row | SMILES | IC50 [nM]
23 | CC(C)Cn1c(=O)c(C(=O)NC2CC2)c(O)n2ncc(/C=C/C(=O)N3CCCC34CC4)c12 [Synthesis Example 721, (E)-N-Cyclopropyl-7-hydroxy-4-isobutyl-5-oxo-3-(3-oxo-3-(4-azaspiro[2.4]heptan-4-yl)prop-1-en-1-yl)-4,5-dihydropyrazolo[1,5-a]pyrimidine-6-carboxamide] | 1.05
24 | Cc1nn2c(O)c(C(=O)NC3CC3)c(=O)n(CC(C)C)c2c1/C=C/C(=O)N1C[C@@H]2C[C@H]1CO2 [Synthesis Example 753, 3-((E)-3-((1S,4S)-2-Oxa-5-azabicyclo[2.2.1]heptan-5-yl)-3-oxoprop-1-en-1-yl)-N-cyclopropyl-7-hydroxy-4-isobutyl-2-methyl-5-oxo-4,5-dihydropyrazolo[1,5-a]pyrimidine-6-carboxamide] | 0.48
25 | CCN1CCN(C(=O)/C=C/c2c(C)nn3c(O)c(C(=O)NC4CC4)c(=O)n(CC(C)C)c23)[C@@H](C)C1 [Synthesis Example 707, (S,E)-N-Cyclopropyl-3-(3-(4-ethyl-2-methylpiperazin-1-yl)-3-oxoprop-1-en-1-yl)-7-hydroxy-4-isobutyl-2-methyl-5-oxo-4,5-dihydropyrazolo[1,5-a]pyrimidine-6-carboxamide] | 0.84
